Columns and labels:
collagenase = experiment: Measurement of collagenase expression inhibitory activity in human fibroblasts; format: cell-based; settings: human fibroblasts treated at 10^−4 mole for 24 hours; untreated control group set as 100
Description: The collagenase expression inhibitory activity of the extracts of natural materials, prepared in Comparative Examples 1 and 2, and the salt-fermented extracts of natural materials, prepared in Examples 1 to 7, were measured comparatively with those of tocopherol and EGCG. […] Tocopherol and EGCG, which are antioxidant substances, are known to prevent skin aging by regenerating the epidermal cells of the skin.
In the test, human fibroblasts were seeded into a 96-well microtiter plate containing DMEM (Dulbecco's Modified Eagle's Media) medium containing 2.5% fetal bovine serum to a density of 5,000 cells/well and were cultured to a confluence of about 90%. […]
The collected cell culture broths were measured for collagenase production using a commercially available collagenase measurement device (Amersham Phamasia, USA). […]
The absorbance of the 96-well plate having a yellow color was measured at 405 nm using an absorbance spectrometer, and the degree of synthesis of collagenase was calculated according to the following Equation 1. Herein, the absorbance of the cell culture broth collected from the group not treated with the composition was used as a control. That is, the expression of collagenase in the control group was set as 100, and the expression of collagenase in the group treated with the composition was calculated relative to the control group.

procollagen = experiment: Test of the effect of promoting procollagen production in human fibroblasts; format: cell-based; settings: human fibroblasts treated at 10^−4 mole for 24 hours; procollagen type-1 C-peptide EIA; untreated control group set as 100
Description: Procollagen is a collagen production-inducing substance necessary for collagen production and aging prevention, and if the degree of production of procollagen is high, the degree of production of collagen is also high, and thus the production of skin wrinkles can be prevented. Also, vitamin C is known as a component essential for the synthesis of collagen. […] The cell culture broths were then collected. After 24 hours, the amount of released procollagen in the medium was measured with a procollagen type-1 C-peptide EIA kit (MK101, Takara, Japan). Based on the measurement results, the production of procollagen was calculated according to the following Equation 2. Herein, the production of procollagen collected from the group not treated with the composition was used as a control group. […] [formula]

Molecule | Collagenase expression (%) (collagenase) | Procollagen production (%) (procollagen)
O=C(O[C@@H]1Cc2c(O)cc(O)cc2O[C@@H]1c1cc(O)c(O)c(O)c1)c1cc(O)c(O)c(O)c1 [EGCG] | 60 | 
O=C1O[C@H]([C@@H](O)CO)C(O)=C1O [Vitamin C, vitamin C] |  | 120
tocopherol | 75 | 

Reference: patent US8268366B2, “Cosmetic composition containing salt-fermented extract of natural materials” (Amorepacific Corporation, priority 2008, dated 2012)
